Reference: PubChem BioAssay AID248 (DTP/NCI, 2004)
Values joined by “and” are separate entries in the source; they are usually repeats but may differ in a detail not shown here. Identical values can stand only once. Toxic doses and inconclusive results are not listed.

Tested on: L1210 leukemia ip in BDF1 mice, survival T/C
Test: NCI In Vivo Anticancer Drug Screen. Data for tumor model L1210 Leukemia (intraperitoneal) in B6D2F1 (BDF1) mice
Conditions: endpoint: mean survival time, higher = longer survival
Method in brief: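 In this screen, tumor-bearing mice given compound are compared to those given vehicle, and their survival values are reported as a treated-to-control quotient.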

[1] = dose: 200.0 mg/kg/injection, schedule: Q01DX001 (ip), vehicle: saline
[2] = dose: 100.0 mg/kg/injection, schedule: Q04DX003 (ip), vehicle: saline with Tween-80
[3] = dose: 100.0 mg/kg/injection, schedule: Q01DX001 (ip), vehicle: saline
[4] = dose: 200.0 mg/kg/injection, schedule: Q04DX003 (ip), vehicle: saline with Tween-80
[5] = dose: 100.0 mg/kg/injection, schedule: Q01DX009 (ip), vehicle: saline with Tween-80
[6] = dose: 200.0 mg/kg/injection, schedule: Q01DX009 (ip), vehicle: saline with Tween-80
[7] = dose: 100.0 mg/kg/injection, schedule: Q04DX003 (ip), vehicle: Klucel (hydroxypropylcellulose) (HPC)
[8] = dose: 200.0 mg/kg/injection, schedule: Q04DX003 (ip), vehicle: Klucel (hydroxypropylcellulose) (HPC)
[9] = dose: 400.0 mg/kg/injection, schedule: Q04DX003 (ip), vehicle: Klucel (hydroxypropylcellulose) (HPC)
[10] = dose: 100.0 mg/kg/injection, schedule: Q04DX003 (ip), vehicle: saline
[11] = dose: 200.0 mg/kg/injection, schedule: Q04DX003 (ip), vehicle: saline
[12] = dose: 400.0 mg/kg/injection, schedule: Q04DX003 (ip), vehicle: saline
[13] = dose: 50.0 mg/kg/injection, schedule: Q01DX009 (ip), vehicle: Klucel (hydroxypropylcellulose) (HPC)

For `CC1CN1P(=S)(N1CC1C)N1CC1C` (stereo not drawn), the T/C (dose: 2.5 mg/kg/injection, schedule: Q01DX Z (ip), vehicle: saline) was 92 % of control, the T/C (dose: 3.75 mg/kg/injection, schedule: Q01DX015 (ip), vehicle: saline) was 104 % of control and the T/C (dose: 5.0 mg/kg/injection, schedule: Q01DX Z (ip), vehicle: saline) was 95 % of control. The T/C (dose: 6.0 mg/kg/injection, schedule: Q01DX001 (ip), vehicle: saline) was 100 % of control, the T/C (dose: 7.5 mg/kg/injection, schedule: Q01DX015 (ip), vehicle: saline) was 110 % of control and the T/C (dose: 10.0 mg/kg/injection, schedule: Q01DX Z (ip), vehicle: saline) was 98 % of control. The T/C (dose: 12.0 mg/kg/injection, schedule: Q01DX001 (ip), vehicle: saline) was 113 % of control, the T/C (dose: 12.0 mg/kg/injection, schedule: Q01DX015 (ip), vehicle: saline) was 107 % of control and the T/C (dose: 20.0 mg/kg/injection, schedule: Q01DX Z (ip), vehicle: saline) was 101 % of control. For the same molecule, the T/C (dose: 24.0 mg/kg/injection, schedule: Q01DX001 (ip), vehicle: saline) was 104 % of control, the T/C (dose: 48.0 mg/kg/injection, schedule: Q01DX001 (ip), vehicle: saline) was 108 % of control and the T/C (dose: 48.0 mg/kg/injection, schedule: Q01DX015 (ip), vehicle: saline) was 164 % of control. The T/C (dose: 50.0 mg/kg/injection, schedule: Q01DX001 (ip), vehicle: saline) was 108 % of control, the T/C (dose: 60.0 mg/kg/injection, schedule: Q01DX015 (ip), vehicle: saline) was 102 % of control and the T/C (dose: 72.0 mg/kg/injection, schedule: Q01DX Z (ip), vehicle: saline) was 117 % of control. The T/C (dose: 96.0 mg/kg/injection, schedule: Q01DX015 (ip), vehicle: saline) was 97 % of control, the T/C (dose: 96.0 mg/kg/injection, schedule: Q01DX Z (ip), vehicle: saline) was 90 % of control and the T/C (dose: 144.0 mg/kg/injection, schedule: Q01DX001 (ip), vehicle: saline) was 152 % of control and 153 % of control. For the same molecule, the T/C [1] was 112 % of control and the T/C (dose: 216.0 mg/kg/injection, schedule: Q01DX001 (ip), vehicle: saline) was 107 % of control.

`Cc1ccc(C(C)NC2=NCCO2)c(C)c1` (stereo not drawn) was tested, and the T/C [2] was 105 % of control.

`CC(=O)CP(=O)(O)O` was tested, and the T/C (dose: 100.0 mg/kg/injection, schedule: Q04DX002 (ip), vehicle: saline) was 97 % of control, the T/C (dose: 200.0 mg/kg/injection, schedule: Q04DX002 (ip), vehicle: saline) was 94 % of control and the T/C (dose: 400.0 mg/kg/injection, schedule: Q04DX002 (ip), vehicle: saline) was 94 % of control.

For `NC(CSP(=O)(O)O)=NCC12CC3CC(CC(C3)C1)C2`, the T/C (dose: 10.0 mg/kg/injection, schedule: Q04DX002 (ip), vehicle: Klucel (hydroxypropylcellulose) (HPC)) was 102 % of control and the T/C (dose: 20.0 mg/kg/injection, schedule: Q04DX002 (ip), vehicle: Klucel (hydroxypropylcellulose) (HPC)) was 109 % of control.

`N#[N+]c1ccc(Br)cc1-c1nc(N)nc(N)n1` was tested, and the T/C (dose: 12.5 mg/kg/injection, schedule: Q01DX009 (ip), vehicle: saline) was 92 % of control, the T/C (dose: 25.0 mg/kg/injection, schedule: Q01DX009 (ip), vehicle: saline) was 101 % of control and the T/C (dose: 25.0 mg/kg/injection, schedule: Q04DX003 (ip), vehicle: saline) was 113 % of control. The T/C (dose: 50.0 mg/kg/injection, schedule: Q01DX009 (ip), vehicle: saline) was 100 % of control, the T/C (dose: 50.0 mg/kg/injection, schedule: Q04DX003 (ip), vehicle: saline) was 98 % of control and the T/C [3] was 104 % of control.

For `CC(C)C(NC(=O)CCNC(=O)OCc1ccccc1)C(=O)O` (stereo not drawn), the T/C [2] was 97 % of control, the T/C [4] was 97 % of control and the T/C (dose: 400.0 mg/kg/injection, schedule: Q04DX003 (ip), vehicle: saline with Tween-80) was 97 % of control.

In the case of `Cc1c(Cl)cccc1NC(=O)Nc1nccs1`, the T/C (dose: 50.0 mg/kg/injection, schedule: Q04DX003 (ip), vehicle: saline with Tween-80) is reported as 103 % of control, the T/C [5] is reported as 101 % of control and 104 % of control and the T/C (dose: 100.0 mg/kg/injection, schedule: Q04DX002 (ip), vehicle: saline with Tween-80) is reported as 100 % of control and 103 % of control. The T/C [2] was 101 % of control, the T/C [6] was 100 % of control and the T/C (dose: 200.0 mg/kg/injection, schedule: Q04DX002 (ip), vehicle: saline with Tween-80) was 95 % of control and 96 % of control. The T/C [4] was 114 % of control and the T/C (dose: 400.0 mg/kg/injection, schedule: Q04DX002 (ip), vehicle: saline with Tween-80) was 109 % of control.

For `COc1ccc(C2=NNC(c3ccc(OC)cc3)=NN2)cc1`, the T/C (dose: 100.0 mg/kg/injection, schedule: Q01DX001 (ip), vehicle: other) was 104 % of control, the T/C (dose: 200.0 mg/kg/injection, schedule: Q01DX001 (ip), vehicle: other) was 96 % of control and the T/C (dose: 400.0 mg/kg/injection, schedule: Q01DX001 (ip), vehicle: other) was 93 % of control.

For `CCOc1ccc(OCC(=O)O)cc1`, the T/C [7] was 93 % of control, the T/C [8] was 89 % of control and the T/C [9] was 89 % of control.

With `Cc1cc(Cl)nc2ccc3ccccc3c12` the T/C [3] was 96 % of control, the T/C [1] was 93 % of control and the T/C (dose: 400.0 mg/kg/injection, schedule: Q01DX001 (ip), vehicle: saline) was 89 % of control.

In the case of `Cc1cccc[n+]1Cc1cc(=O)[nH]c(=O)[nH]1`, the T/C [10] is reported as 101 % of control, the T/C [11] is reported as 98 % of control and the T/C [12] is reported as 98 % of control.

For `[N-]=[N+]=C1C(=O)NN=C1c1ccccc1`, the T/C (dose: 20.0 mg/kg/injection, schedule: Q04DX003 (ip), vehicle: Klucel (hydroxypropylcellulose) (HPC)) was 92 % of control, the T/C (dose: 25.0 mg/kg/injection, schedule: Q01DX009 (ip), vehicle: Klucel (hydroxypropylcellulose) (HPC)) was 98 % of control and the T/C (dose: 40.0 mg/kg/injection, schedule: Q04DX003 (ip), vehicle: Klucel (hydroxypropylcellulose) (HPC)) was 101 % of control. For the same molecule, the T/C [13] was 96 % of control and 108 % of control, the T/C (dose: 80.0 mg/kg/injection, schedule: Q04DX003 (ip), vehicle: Klucel (hydroxypropylcellulose) (HPC)) was 97 % of control and the T/C (dose: 100.0 mg/kg/injection, schedule: Q01DX009 (ip), vehicle: Klucel (hydroxypropylcellulose) (HPC)) was 101 % of control and 102 % of control. The T/C [7] was 98 % of control and 101 % of control and 106 % of control, the T/C [8] was 98 % of control and the T/C [9] was 110 % of control.

With `CC1CCCCN1Cc1ccccc1COC(=O)c1ccc(Cl)cc1` (stereo not drawn) the T/C (dose: 100.0 mg/kg/injection, schedule: Q01DX001 (ip), vehicle: Klucel (hydroxypropylcellulose) (HPC)) was 98 % of control and the T/C (dose: 200.0 mg/kg/injection, schedule: Q01DX001 (ip), vehicle: Klucel (hydroxypropylcellulose) (HPC)) was 107 % of control.

With `CNc1ccc(C(=O)O)cc1OC` the T/C [5] was 95 % of control, the T/C [6] was 91 % of control and the T/C (dose: 400.0 mg/kg/injection, schedule: Q01DX009 (ip), vehicle: saline with Tween-80) was 88 % of control.

In the case of `COc1ccc(CO/N=C2/CC(NOCc3ccc(OC)cc3)NC(=O)N2)cc1` (stereo not drawn), the T/C [10] is reported as 90 % of control, the T/C [11] is reported as 90 % of control and the T/C [12] is reported as 86 % of control.

In the case of `CC(C)(CO)N(CC(=O)O)CC(=O)O`, the T/C [3] is reported as 101 % of control and the T/C [1] is reported as 103 % of control.

With `O=c1[nH]cc(Cc2ccc(O)cc2)c(=O)[nH]1` the T/C (dose: 50.0 mg/kg/injection, schedule: Q01DX005 (ip), vehicle: saline with Tween-80) was 106 % of control, the T/C (dose: 100.0 mg/kg/injection, schedule: Q01DX005 (ip), vehicle: saline with Tween-80) was 101 % of control and the T/C (dose: 200.0 mg/kg/injection, schedule: Q01DX005 (ip), vehicle: saline with Tween-80) was 98 % of control. For the same molecule, the T/C (dose: 400.0 mg/kg/injection, schedule: Q01DX005 (ip), vehicle: saline with Tween-80) was 109 % of control.

For `COC1C(O)=C2C(=O)OC(C)(O)/C=C/C=C\C=C/C=C/C(c3ccccc3)NC(=O)/C=C/C=C/C=C/C=C/C2(C)C1O` (stereo not drawn), the T/C (dose: 2.5 mg/kg/injection, schedule: Q01DX009 (ip), vehicle: saline) was 94 % of control, the T/C (dose: 5.0 mg/kg/injection, schedule: Q01DX009 (ip), vehicle: saline) was 100 % of control and the T/C (dose: 10.0 mg/kg/injection, schedule: Q01DX009 (ip), vehicle: saline) was 95 % of control.

In the case of `COc1cc(NS(C)(=O)=O)ccc1Nc1c2ccccc2nc2cc(C(F)(F)F)c(N)cc12`, the T/C [13] is reported as 113 % of control and 123 % of control, the T/C (dose: 50.0 mg/kg/injection, schedule: Q04DX003 (ip), vehicle: Klucel (hydroxypropylcellulose) (HPC)) is reported as 118 % of control and the T/C [7] is reported as 123 % of control. The T/C (dose: 200.0 mg/kg/injection, schedule: Q01DX009 (ip), vehicle: Klucel (hydroxypropylcellulose) (HPC)) was 153 % of control and 174 % of control, the T/C (dose: 200.0 mg/kg/injection, schedule: Q04DX002 (ip), vehicle: Klucel (hydroxypropylcellulose) (HPC)) was 162 % of control and the T/C (dose: 400.0 mg/kg/injection, schedule: Q04DX002 (ip), vehicle: Klucel (hydroxypropylcellulose) (HPC)) was 179 % of control. For the same molecule, the T/C [9] was 112 % of control.
